Data from patent US5869515A, “1,3-dihydro-2H-imidazol-2-one compounds” (Janssen Pharmaceutica N.V., priority 1995, dated 1999).

System: dextran-induced oedema formation in mouse ear
Test: Dextran-Induced Oedema Formation in Mouse Ear
Type: in vivo, male Swiss mice
Conditions: oral, mice, 1 h before i.v. dextran T500 and pontamine sky-blue, compared with background extravasation, read-out: % inhibition of the extravasation of the dye
Procedure: Dextran-Induced Oedema Formation in Mouse Ear
Systemic injection of dextran T500 in normal, non-sensitized mice elicits increased vascular permeability, leading to extravasation and oedema of the extremities. When dextran is injected together with a blue dye, blueing of the ears is the most prominent feature of oedematous response.
Male Swiss mice weighing 24-26 g were orally pretreated with the test compound dissolved in PEG-200 at different concentrations or solvent. One hour later, the mice were given an intravenous injection with an isotonic saline solution containing 12 mg/ml dextran T500 and 2.6 mg/ml pontamine sky-blue dye, in a volume of 0.1 ml per 10 g body weight. One hour and forty-five minutes later, the animals are sacrificed by ether and their ears removed. Extraction and quantification of the extravasated dye is done as described by Van Wauwe and Goossens (Drug Dev. Res. 1986, 8, 213-218).
The extravasation of the dye is characterized by the blueing value which is defined as the concentration of the extracted dye in both ears. The background blueing value was determined once as the mean blueing value obtained by injecting a group of mice with a saline solution containing only dextran T500 and the blue dye. Table 2 lists the percentage inhibition of the extravasation of the dye when compared with the background extravasation of the dye when the test compound was administered at a dose of 5 mg/kg.

Compound	inhibition in vivo at 5 mg/kg
COc1ccc(C(=O)CN2CCN(C3CCCCO3)C2=O)cc1OC (racemic) [Compound 8, (±)-1-[2-(3,4-dimethoxyphenyl)-2-oxoethyl]-3-(tetrahydro-2H-pyran-2-yl)-2-imidazolidinone]	5.2%
COc1ccc(C(=O)Cn2ccnc2O)cc1OC1CCCC1 [Compound 1, 1-[2-[3-(cyclopentyloxy)-4-methoxyphenyl]-2-oxoethyl]-1,3-dihydro-2H-imidazol-2-one]	48.3%
CCOC(=O)n1ccn(CC(=O)c2ccc(OC)c(OC3CCCC3)c2)c1=O [Compound 2, ethyl 3-[2-[3-(cyclopentyloxy)-4-methoxphenyl]-2-oxoethyl]-2,3-dihydro-2-oxo-1H-imidazole-1-carboxylate]	55.6%
COc1ccc(C(=O)Cn2ccn(Cc3ccccc3)c2=O)cc1OC [Compound 5, 1-[2-(3,4-dimethoxyphenyl)-2-oxoethyl]-1,3-dihydro-3-(phenylmethyl)-2H-imidazol-2-one]	28.7%
COc1ccc(C(=O)CN2CCNC2=O)cc1OC [Compound 7, 1-[2-(3,4-dimethoxyphenyl)-2-oxoethyl]-2-imidazolidinone]	22.6%
COc1ccc(/C(=C\C#N)CN2CCNC2=O)cc1OC [Compound 9, (E)-3-(3,4-dimethoxyphenyl)-4-(2-oxo-1-imidazolidinyl)-2-butenenitrile]	53.8%
COc1ccc(Cn2ccn(CC(=O)c3ccc(OC)c(OC4CCCC4)c3)c2=O)cc1 [Compound 10, 1-[2-[3-(cyclopentyloxy)-4-methoxyphenyl]-2-oxoethyl]-1,3-dihydro-3-[(4-methoxyphenyl)methyl]-2H-imidazol-2-one]	56%
COc1ccc(C(=O)Cn2ccn(C(c3ccccc3)c3ccccc3)c2=O)cc1OC [Compound 11]	34.6%
COc1ccc(Cn2ccn(CC(=O)c3ccc(OC)c(OC)c3)c2=O)c(OC)c1 [Compound 12]	26.4%
COc1ccc(C(=O)CN2CCNC2=O)cc1OC1CCCC1 [Compound 13]	27.9%
CCOC(=O)N1CCN(CC(=O)c2ccc(OC)c(OC)c2)C1=O [Compound 15]	19.2%

Target: T1, recombinant human MNL phosphodiesterase type IV B (Homo sapiens, UniProt Q07343)
T1 construct: made in house
T1 sequence (Q07343 1-564 isoform Q07343-2): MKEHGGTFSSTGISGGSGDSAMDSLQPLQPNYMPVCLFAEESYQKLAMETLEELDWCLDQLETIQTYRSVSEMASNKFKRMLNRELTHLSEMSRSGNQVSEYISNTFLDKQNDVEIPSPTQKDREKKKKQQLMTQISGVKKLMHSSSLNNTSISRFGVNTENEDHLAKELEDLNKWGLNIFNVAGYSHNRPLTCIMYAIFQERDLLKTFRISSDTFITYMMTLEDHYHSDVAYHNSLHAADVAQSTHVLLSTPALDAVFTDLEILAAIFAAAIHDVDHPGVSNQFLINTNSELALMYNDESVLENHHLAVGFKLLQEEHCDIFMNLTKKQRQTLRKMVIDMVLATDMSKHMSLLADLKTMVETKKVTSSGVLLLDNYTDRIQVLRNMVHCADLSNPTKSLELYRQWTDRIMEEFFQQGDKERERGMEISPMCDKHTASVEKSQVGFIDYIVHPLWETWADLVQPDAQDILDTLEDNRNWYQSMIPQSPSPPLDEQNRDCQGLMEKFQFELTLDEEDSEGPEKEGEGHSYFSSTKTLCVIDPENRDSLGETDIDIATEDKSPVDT
Test: Inhibition of Recombinant Human Mononuclear Lymphocyte (MNL) Phosphodiesterase Type IV B Produced in Insect Cells with a Baculovirus Vector
Type: biochemical
Conditions: 0.8 μM 3H-cAMP, pH 8, 10 min, 37° C., 1% DMSO; read-out: IC50 value, recombinant human MNL phosphodiesterase PDE IV B
Procedure: Inhibition of Recombinant Human Mononuclear Lymphocyte (MNL) Phosphodiesterase Type IV B Produced in Insect Cells with a Baculovirus Vector The alleviating and/or curing effect of the instant compounds on allergic and atopic diseases was assessed by an in vitro assay system to detect an inhibiting effect on the recombinant human MNL phosphodiesterase type IV B. Seventy-two hours after infection with recombinant baculovirus, the insect cells were harvested and pelleted at 500 g for 5 minutes. The cells were lysed in 10 ml lysis-buffer consisting of 20 mM Tris, 10 mM EGTA, 2 mM Na2 EDTA, 1% Triton-X-100, 1 mM Na3 VO4, 10 mM NaF, 2 μg/ml of leupeptine, pepstatine and aprotinine, 0.3 μg/ml benzamidine and 100 μg/ml TPCK pH 7.5. After 5 minutes on ice, solubilized cells were centrifuged at 4000 rpm for 15 minutes at 4° C. The resulting supernatant was filtered through a 0.45 μm filter (Millipore) and brought to TBS buffer (50 mM Tris, 150 mM NaCl pH 7.4). […] The inhibiting effect of the present compounds on recombinant human MNL phosphodiesterase PDE IV B was measured at different concentrations of the instant compounds. The IC50 values (expressed in M) were calculated graphically from the thus obtained inhibition values.

IC50	Compound
< 1000 nM	COc1ccc(C(=O)Cn2ccnc2O)cc1OC1CCCC1 [Compound 1, 1-[2-[3-(cyclopentyloxy)-4-methoxyphenyl]-2-oxoethyl]-1,3-dihydro-2H-imidazol-2-one]
< 1000 nM	C=C(Cn1cc[nH]c1=O)c1ccc(OC)c(OC2CCCC2)c1 [Compound 4, 1-[2-[3-(cyclopentyloxy)-4-methoxy-phenyl]-2-propenyl]-1,3-dihydro-2H-imidazol-2-one]
